From ChEMBL document CHEMBL2074227, “Antiestrogens and steroid hormones: substrates of the human P-glycoprotein” (Biochem Pharmacol, 1994)

These compounds were tested against ATP-dependent translocase ABCB1 (Homo sapiens, UniProt P08183) (assay: TP_TRANSPORTER: ATP hydrolysis in MDR1-expressing Sf9 cells).
Format: functional

Chain of ATP-dependent translocase ABCB1 (P08183 whole entry): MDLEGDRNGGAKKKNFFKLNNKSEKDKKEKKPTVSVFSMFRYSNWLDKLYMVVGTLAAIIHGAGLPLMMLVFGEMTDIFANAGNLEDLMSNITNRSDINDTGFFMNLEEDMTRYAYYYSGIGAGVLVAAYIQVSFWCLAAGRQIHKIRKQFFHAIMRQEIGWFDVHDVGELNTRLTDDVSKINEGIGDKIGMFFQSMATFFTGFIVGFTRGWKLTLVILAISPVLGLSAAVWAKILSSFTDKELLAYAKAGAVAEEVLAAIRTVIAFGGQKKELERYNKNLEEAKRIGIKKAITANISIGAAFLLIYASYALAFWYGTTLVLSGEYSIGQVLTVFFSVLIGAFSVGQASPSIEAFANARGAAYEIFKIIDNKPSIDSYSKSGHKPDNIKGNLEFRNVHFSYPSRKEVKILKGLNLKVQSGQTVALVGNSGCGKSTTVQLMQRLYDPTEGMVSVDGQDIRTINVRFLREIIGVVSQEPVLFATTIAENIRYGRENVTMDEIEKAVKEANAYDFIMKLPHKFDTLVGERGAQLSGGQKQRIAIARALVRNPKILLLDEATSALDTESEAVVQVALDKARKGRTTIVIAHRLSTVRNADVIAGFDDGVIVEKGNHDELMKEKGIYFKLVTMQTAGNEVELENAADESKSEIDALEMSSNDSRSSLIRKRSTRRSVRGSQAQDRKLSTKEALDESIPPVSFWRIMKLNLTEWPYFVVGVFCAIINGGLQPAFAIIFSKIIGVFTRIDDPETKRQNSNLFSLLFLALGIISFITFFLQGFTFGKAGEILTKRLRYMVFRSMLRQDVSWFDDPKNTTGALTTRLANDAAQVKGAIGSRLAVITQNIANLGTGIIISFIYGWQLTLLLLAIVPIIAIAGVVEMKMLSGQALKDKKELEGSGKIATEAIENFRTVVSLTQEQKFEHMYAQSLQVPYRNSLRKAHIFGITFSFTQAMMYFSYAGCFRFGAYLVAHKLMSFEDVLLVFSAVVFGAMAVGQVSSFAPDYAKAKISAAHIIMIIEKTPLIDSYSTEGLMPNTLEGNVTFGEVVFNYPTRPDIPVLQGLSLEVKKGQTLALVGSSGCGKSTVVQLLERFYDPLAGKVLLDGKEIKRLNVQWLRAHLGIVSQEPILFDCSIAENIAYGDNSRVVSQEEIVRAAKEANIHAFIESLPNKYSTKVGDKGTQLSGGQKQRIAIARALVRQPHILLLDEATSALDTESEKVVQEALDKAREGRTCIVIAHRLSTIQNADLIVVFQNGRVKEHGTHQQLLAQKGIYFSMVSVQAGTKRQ

Row | Compound | Activity
1 | CN(C)CCOc1ccc(/C(=C(/CCCl)c2ccccc2)c2ccccc2)cc1 [TOREMIFENE] | substrate [+]
2 | CC/C(=C(\c1ccccc1)c1ccc(OCCN)cc1)c1ccccc1 [DESMETHYL TAMOXIFEN] | substrate [+]
3 | CC/C(=C(/c1ccc(OCCN(C)C)cc1)c1cccc(O)c1)c1ccccc1 [DROLOXIFENE] | substrate [+]
4 | CC/C(=C(/CC)c1ccc(O)cc1)c1ccc(O)cc1 [DIETHYLSTILBESTROL] | substrate [+]
5 | C[C@]12CC[C@@H]3c4ccc(O)cc4CC[C@H]3[C@@H]1CC[C@@H]2O [ESTRADIOL] | substrate [+]
6 | CCN(CC)CCOc1ccc(C(=C(Cl)c2ccccc2)c2ccccc2)cc1 [CLOMIPHENE] | substrate [+]
7 | CCC(=C(c1ccc(O)cc1)c1ccc(OCCN(C)C)cc1)c1ccccc1 | substrate [+]
8 | C[C@]12C[C@H](O)[C@H]3[C@@H](CCC4=CC(=O)CC[C@@]43C)[C@@H]1CC[C@@H]2C(=O)CO [CORTICOSTERONE] | substrate [+]
9 | COc1ccc2c(c1)CCC(c1ccccc1)=C2c1ccc(OCCN2CCCC2)cc1 [NAFOXIDINE] | substrate [+]
